4 molecules from patent publication US20190031773A1, “INHIBITORS AND ANTAGONISTS OF HUMAN PYCR1” (AGENCY FOR SCIENCE, TECHNOLOGY AND RESEARCH, priority 2017, published 2019) can be followed below.

The target in series [1] is T1, PYCR1 full length recombinant enzyme (aa 1-319) (Homo sapiens, UniProt P32322).
T1 construct: PYCR1 full length recombinant enzyme (aa 1-319) with a 6His-tag at the N-terminus; 6His (N); made in house; host or cells: E. coli
T1 sequence (P32322 1-319): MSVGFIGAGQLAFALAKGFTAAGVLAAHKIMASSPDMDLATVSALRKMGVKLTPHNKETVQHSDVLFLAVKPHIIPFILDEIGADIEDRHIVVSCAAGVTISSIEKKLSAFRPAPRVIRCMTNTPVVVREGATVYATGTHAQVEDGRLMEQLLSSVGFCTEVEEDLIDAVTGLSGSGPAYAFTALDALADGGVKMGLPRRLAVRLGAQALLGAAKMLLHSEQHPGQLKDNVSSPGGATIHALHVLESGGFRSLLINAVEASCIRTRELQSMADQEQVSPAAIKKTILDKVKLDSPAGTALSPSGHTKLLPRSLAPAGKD
Kind of series: PYCR1 Inhibition Assay (NAD(P)H-Glo luminescence). The class given is biochemical. The following applies: 5 mM L-proline + 0.5 mM NAD+, 4.2 nM enzyme, 45 min at room temperature. The text has this: An example for such assay may look as follows:
The assay is based on the ability of PYCR1 to catalyze the oxidation of L-proline to L-1 pyrroline-5-carboxylate which occurs concomitant with the reduction of the cosubstrate NAD^+ to its reduced form NADH+H^+. The amount of NADH+H^+ was quantified using the NAD(P)H-Glo™ kit from Promega (catalogue number G9062). Components of the kit generate a luciferase-based luminescence signal the intensity of which is linearly proportional to the amount of NADH+H^+ generated by the PYCR1 reaction and consequently the PYCR1 activity. The luminescence intensity was taken as the measure for the amount of NADH+H^+ generated by PYCR1. […] 40 nl Test compound (dissolved and serially diluted in DMSO at final concentrations during the enzymatic reaction ranging from 6.9E-09 M to 4.5E-05 M) is added to the well of a white 1536-well microtiter plate using an acoustic dispenser (Echo Liquid Handler from Labcyte Inc.) • 2. […] Preincubation of enzyme and test compound for approximately 15 min at room temperature • 4. Add 2.0 μl Substrate mix in assay buffer (5 mM L-proline+0.5 mM NAD^+ final concentration during the enzymatic reaction) • 5. 45 min PYCR1 reaction at room temperature (linear range of the enzymatic reaction) • 6. Add 1.0 μl Stopping agent in assay buffer (2 mM ZnCl2 final concentration) • 7. Incubate for 15 min at room temperature • 8. Add 2.0 μl NAD(P)H-Glo™ reagent (Promega) • 9. Incubate for 30-150 min at room temperature for generation of the persistent luminescence signal • 10. Measure luminescence intensity in a ViewLux Imager (PerkinElmer)

Series [2] relates to rat MH3924A cells.
Procedure: Morris hepatoma cells (MH3924A) were cultured in Dulbecco's modified eagle medium (DMEM) media supplemented with 10% fetal bovine serum (FBS), 100 IU/ml penicillin, 100 μg/ml streptomycin. To assess cell proliferation, cells were seeded in T25 flasks and incubated in DMEM complete medium for 24 hours to allow attachment. Subsequently, seeding cells were infected with shRNA lentivirus in the presence of 8μg/ ml of polybrene for about 7 hours, cells were grown for varying lengths of time, at the end of which they were detached by trypsinization and counted with Countess (Life Technologies, Carlsbad, USA).
Series [3] has as its system rat MH3924A cells. The series can be described thus: Subcutaneous MH3924A xenograft model. The following applies: scid mice. The class given is in vivo. The text has this:
Female scid mice (InVivos, Singapore) were subcutaneously inoculated with 1×10^6rat MH3924A cells that were stably transfected with either shRNA Pycr1.2 or scrambled control shRNA. Mice were sacrificed and tumors excised 3 weeks later.

For series [4], the system named is rat MH3924A cells. Kind of series: Orthotopic MH3924A xenograft models, doxycycline-inducible shRNA. The class given is in vivo, scid mice. The following applies: preventive setting, knockdown induced by doxycycline one day after orthotopic implantation. The text has this: The HCC model was created by the direct intrahepatic injection of rat MH3924A cells harboring inducible shRNA Pycr1.2 or scrambled shRNA constructs into scid mice (InVivos, Singapore). The mice were anesthetized and a midline incision was made to expose the liver. The cells were then slowly injected under the hepatic capsule into the upper left lobe of the liver using a 27-G needle. A pale, whitish color could be observed at the point of injection under the hepatic capsule. Gentle compression was applied with a cotton applicator to stop bleeding and reflux of the cells. The abdomen was closed with a 4-0 silk suture.
In the preventive setting (FIG. 7), shRNA expression was induced the day after cell injection by adding 1 μg/ml doxycycline to the drinking water. Two weeks later, animals were sacrificed and tumors excised for analysis (n=5).
In the therapeutic setting, mice were subjected to liver MRI (magnetic resonance imaging) 7 days (1st experiment, FIG. 8) or 10 days (2nd experiment, FIG. 9) after cell injection and shRNA expression was induced one or four days later by adding 1 μg/ml doxycycline to the drinking water. On day 19 (1st experiment) or 21 (2nd experiment), animals were subjected to liver MRI and sacrificed. Tumors were lysed and analyzed for PYCR1 by Western blot.

Consider `O=C(CCCc1nc(-c2ccc(Cl)cc2)no1)Nc1ccccc1C(=O)O` [2-({4-[3-(4-chlorophenyl)-1,2,4-oxadiazol-5-yl]butanoyl}amino)benzoic acid], for which the IC50 (in general, the concentration needed to halve the response being measured) in series [1] was 8 µM.
`O=C(Cc1ccc(C(=O)O)cc1)NC(c1ccccc1)c1ccccc1N1CCCCC1` (centres unmarked) [4-(2-oxo-2-{[phenyl(2-piperidin-1-ylphenyl)methyl]amino}ethyl)benzoic acid]: the concentration for half-maximal inhibition (IC50) in series [1] turned out to be 7.3 µM.
Regarding `COc1ccc(C(=O)c2oc3ccccc3c2CSCCC(=O)OC(C)(C)C)cc1C(=O)O` [5-[(3-{[(3-tert-butoxy-3-oxopropyl)thio]methyl}-1-benzofuran-2-yl)carbonyl]-2-methoxybenzoic acid], the IC50 in series [1] came to 8.5 µM.
In the case of “shRNA Pycr1.2: Rat PYCR1.2 shRNA: GAACCTGACACCCCACAACAA, short hairpin oligonucleotide targeting rat Pycr1 in lentiviral vector pLKO or pLKO-Tet”, the cell growth entry in the series on rat MH3924A cells [2] (doxycycline-inducible PYCR1 knockdown MH3924A cell line, with vs without doxycycline) is recorded as “reduced cell growth”. Also, the cell proliferation entry in the series on rat MH3924A cells [2] (rat MH3924A cells, shRNA knockdown vs scrambled shRNA) is recorded as “reduced proliferation”. Also, in the series on rat MH3924A cells [3] (MH3924A cells stably expressing shRNA, 3 weeks, n=5), the tumor weight result is “significantly reduced”. For the same molecule, the “tumor growth in vivo” value in the series with rat MH3924A cells [3] (tumors excised 3 weeks later) is given as “significantly inhibited tumor growth”. Besides, the tumor growth result in the series with rat MH3924A cells [4] is “significantly reduced tumor growth”.
